# Source: patent US20040102633A1, “Novel compounds” (priority 2000, published 2004)
# Structures can show the parent of a compound that is named as a salt.
row,SMILES,melting point
1,"CC[C@H](NC(=O)c1c(CN2CCC(N3CCCCC3)CC2)c(-c2ccccc2)nc2cc(OCC(=O)O)ccc12)c1ccccc1 (as salt: hydrochloride) [Example 17, [3-[1,4′]Bipiperidinyl-1′-ylmethyl-2-phenyl-4((S)-1-phenyl-propylcarbamoyl)-quinolin-7-yloxy]-acetic Acid Dihydrochloride]",196 °C (dec.)
2,"CC[C@H](NC(=O)c1c(CN2CCC(N3CCCCC3)CC2)c(-c2ccccc2)nc2cc(OCC(N)=O)ccc12)c1ccccc1 (as salt: hydrochloride) [Example 20, 3-[1,4′]Bipiperidinyl-1′-ylmethyl-7-carbamoylmethoxy-2-phenyl-quinoline-4-carboxylic Acid ((S)-1-phenyl-propyl)-amide Dihydrochloride]",218 to 220 °C
3,"C[C@H](NC(=O)c1c(CN2CCC(N)CC2)c(-c2ccccc2)nc2ccccc12)c1ccccc1 [Example 7, 3-(4-Amino-piperidin-1-ylmethyl)-2-phenyl-quinoline-4-carboxylic Acid ((S)-1-phenyl-ethyl)-amide]",118 to 119 °C
4,"C[C@H](NC(=O)c1c(CN2CCC(N3CCCCC3=O)CC2)c(-c2ccccc2)nc2ccccc12)c1ccccc1 [Example 11, 3-(2-Oxo-[1,4′]bipiperidinyl-1′-ylmethyl)-2-phenyl-quinoline-4-carboxylic Acid ((S)-1-phenyl-ethyl)-amide]",124 to 125 °C
5,"C[C@H](NC(=O)c1c(CN2CCC(N3CCCC3=O)CC2)c(-c2ccccc2)nc2ccccc12)c1ccccc1 [Example 12, 3-[4-(2-Oxo-pyrrolidin-1-yl)-piperidin-1-ylmethyl]-2-phenyl-quinoline-4-carboxylic Acid ((S)-1-phenyl-ethyl)-amide]",120 to 125 °C
6,"CCOC(=O)COc1ccc2c(C(=O)N[C@@H](CC)c3ccccc3)c(CN3CCC(N4CCCCC4)CC3)c(-c3ccccc3)nc2c1 [Example 16, [3-[1,4′]Bipiperidinyl-1′-ylmethyl-2-phenyl-4-((S)-1-phenyl-propylcarbamoyl)-quinolin-7-yloxy]-acetic Acid Ethyl Ester]",101 to 104 °C
7,"CC[C@H](NC(=O)c1c(CN2CCC(N3CCCCC3)CC2)c(-c2ccccc2)nc2cc(OCCO)ccc12)c1ccccc1 [Example 19, 3-[1,4′]Bipiperidinyl-1′-ylmethyl-7-(2-hydroxy-ethoxy)-2-phenyl-quinoline-4-carboxylic acid ((S)-1-phenyl-propyl)-amide]",118 to 122 °C
8,"CC(C)[C@H](NC(=O)c1c(CN2CCC(N3CCCCC3)CC2)c(-c2ccccc2)nc2cc(O)ccc12)c1ccccc1 [Example 21, 3-[1,4′]Bipiperidinyl-1′-ylmethyl-7-hydroxy-2-phenyl-quinoline-4-carboxylic Acid ((S)-2-methyl-1-phenyl-propyl)-amide]",200 to 204 °C (dec.)
9,"COc1ccc2c(C(=O)N[C@H](c3ccccc3)C(C)C)c(CN3CCC(N4CCCCC4)CC3)c(-c3ccccc3)nc2c1 [Example 22, 3-[1,4′]Bipiperidinyl-1′-ylmethyl-7-methoxy-2-phenyl-quinoline-4-carboxylic Acid ((S)-2-methyl-1-phenyl-propyl)-amide]",113 to 116 °C

# Now from value to molecule:
row,melting point,SMILES
1,140 to 145 °C,"C[C@H](NC(=O)c1c(CN2CCC(N)CC2)c(-c2ccccc2)nc2ccccc12)C1CCCCC1 [Example 6, 3-(4-Amino-piperidin-1-ylmethyl)-2-phenyl-quinoline-4-carboxylic Acid ((S)-1-cyclohexyl-ethyl)-amide]"
2,104 to 105 °C,"CCOC(=O)C1CCCN(C2CCN(Cc3c(-c4ccccc4)nc4ccccc4c3C(=O)N[C@@H](C)C3CCCCC3)CC2)C1 (stereo partly drawn) [Example 13, 1′-[4-((S)-1-Cyclohexyl-ethylcarbamoyl)-2-phenyl-quinolin-3-ylmethyl]-[1,4′]bipiperidinyl-3-carboxylic Acid Ethyl Ester]"
3,160 to 165 °C,"C[C@H](NC(=O)c1c(CN2CCC(N3CCCC(C(=O)O)C3)CC2)c(-c2ccccc2)nc2ccccc12)C1CCCCC1 (stereo partly drawn) [Example 14, 1′-[4-((S)-1-Cyclohexyl-ethylcarbamoyl)-2-phenyl-quinolin-3-ylmethyl]-[1,4′]bipiperidinyl-3-carboxylic Acid]"
4,177.9 to 178 °C,"C[C@H](NC(=O)c1c(CN2CCC(N3CCCCC3)CC2)c(-c2ccccc2)nc2cc(O)ccc12)C1CCCCC1 [Example 15, 3-[1,4′]Bipiperidinyl-1′-ylmethyl-7-hydroxy-2-phenyl-quinoline-4-carboxylic Acid ((S)-1-cyclohexyl-ethyl)-amide]"
5,99.6 to 99.7 °C,"C[C@H](NC(=O)c1c(CN2CCC(N3CCCCC3)CC2)c(-c2ccccc2)nc2cc(O)ccc12)c1ccccc1 [Example 18, 3-[1,4′]Bipiperidinyl-1′-ylmethyl-7-hydroxy-2-phenyl-quin line-4-carboxylic Acid ((S)-1-phenyl-ethyl)-amide]"
6,152 to 154 °C,"C[C@H](NC(=O)c1c(CN2CCC(N3CCCCC3)CC2)c(-c2ccccc2)nc2cc(Cl)ccc12)C1CCCCC1 [Example 24, 3-[1,4′]Bipiperidinyl-1′-ylmethyl-7-chloro-2-phenyl-quinoline-4-carboxylic acid ((S)-1-cyclohexyl-ethyl)-amide]"
7,161 to 163 °C,"C[C@H](NC(=O)c1c(CN2CCC(N3CCCCC3)CC2)c(-c2ccccc2)nc2cc(F)ccc12)C1CCCCC1 [Example 25, 3-[1,4′]Bipiperidinyl-1′-ylmethyl-7-fluoro-2-phenyl-quinoline-4-carboxylic Acid ((S)-1-cyclohexyl-ethyl)-amide]"
8,113 °C,"C[C@H](NC(=O)c1c(CN2CCC(N3CCCCC3)CC2)c(-c2ccccc2)nc2c(F)cccc12)C1CCCCC1 [Example 26, 3-[1,4′]Bipiperidinyl-1′-ylmethyl-8-fluoro-2-phenyl-quinoline-4-carboxylic Acid ((S)-1-cyclohexyl-ethyl)-amide]"
9,165 to 166 °C,"C[C@H](NC(=O)c1c(CN2CCC(N3CCCCC3)CC2)c(-c2cccs2)nc2ccccc12)C1CCCCC1 [Example 27, 3-[1,4′]Bipiperidinyl-1-ylmethyl-2-thiophen-2-yl-quinoline-4-carboxylic Acid ((S)-1-cyclohexyl-ethyl)-amide]"
10,174 to 175 °C,"C[C@H](NC(=O)c1c(CN2CCC(N3CCCCC3)CC2)c(-c2ccccc2)nc2ccc(F)cc12)C1CCCCC1 [Example 28, 3-[1,4′]Bipiperidinyl-1′-ylmethyl-6-fluoro-2-phenyl-quinoline-4-carboxylic Acid ((S)-1-cyclohexyl-ethyl)-amide]"
11,151 to 153 °C,"C[C@H](NC(=O)c1c(CN2CCC(N3CCCCC3)CC2)c(-c2ccc(F)cc2)nc2ccccc12)C1CCCCC1 [Example 29, 3-[1,4′]Bipiperidinyl-1′-ylmethyl-2-(4-fluoro-phenyl)-quinoline-4-carboxylic Acid ((S)-1-cyclohexyl-ethyl)-amide]"
12,138 to 140 °C,"C[C@H](NC(=O)c1c(CN2CCC(N3CCCCC3)CC2)c(-c2ccc(C(F)(F)F)cc2)nc2ccccc12)C1CCCCC1 [Example 30, 3-[1,4′]Bipiperidinyl-1′-ylmethyl-2-(4-trifluoromethyl-phenyl) -quinoline-4-carboxylic Acid ((S)-1-cyclohexyl-ethyl)-amide]"
